# According to patent US20260306464A1, “LINAPRAZAN GLURATE FOR TREATING GASTROESOPHAGEAL REFLUX DISEASE (GERD)” (Cinclus Pharma Holding AB (publ), priority 2023, published 2026):
# Key:
# [1] = LEED study: endoscopic healing of erosive esophagitis / LA grade improvement after 4 weeks; format: in vivo, human; details: lansoprazole 30 mg QD
# From the text: The severity of esophagitis is typically indicated using the Los Angeles (LA) classification of reflux esophagitis, which is based on an endoscopic assessment of the patient. The LA grade scoring system divides reflux esophagitis into four categories (LA grade A to D) based on the extent of esophageal mucosal breaks. […] LA grade C esophagitis is defined as one or more mucosal breaks that are continuous between the tops of two mucosal folds, but which involves less than 75% of the esophageal circumference. The most severe form, LA grade D esophagitis, is defined as one or more mucosal breaks involving at least 75% of the esophageal circumference (Lundell et al., Gut 1999, vol. 45, p. 172-180).
# As used herein, the terms “improvement of the LA grade” and “LA grade improvement” refer to one or more steps from one LA grade to a lower LA grade (such as from grade D to grade C, B or A) or to being healed. In some embodiments, the improvement of the LA grade is 1 step. In some embodiments, the improvement of the LA grade is 2 steps. In some embodiments, the improvement of the LA grade is 3 steps. In some embodiments, the improvement of the LA grade is 4 steps.
# The study included patients with erosive esophagitis (eGERD). Patients were divided into two cohorts, one with patients having moderate to severe eGERD (LA grade C/D) and one with patients having milder eGERD (LA grade A/B) with a history of only partial response to PPI-treatment. The primary endpoint of the study was to support dose selection of linaprazan glurate for the phase III program in eGERD, through central assessment of healing of erosive esophagitis after four weeks of treatment. The sample size, i.e., the number of patients needed, for measuring dose related efficacy was based on the patient cohort with moderate to severe eGERD. After initial endoscopy and other screening procedures, 248 patients were randomized equally into one of five treatment groups, receiving either four weeks treatment with linaprazan glurate in four dose levels, or four weeks lansoprazole in the approved standard eGERD healing dose. Thereafter, an endoscopic evaluation of healing was performed, where healing was defined as no presence of esophageal erosions, i.e., no erosive damage to the esophageal mucosa. After the endoscopic evaluation, all patient groups received lansoprazole for four weeks in a maintenance phase. A retrospective central review of the endoscopy findings was performed, and 162 patients were available for evaluation of the primary endpoint. All enrolled 248 patients were included in the safety analysis.
# (§1) The study was a randomized, double-blind, active comparator-controlled study with a parallel group design including four arms with linaprazan glurate and one arm with lansoprazole. Pharmacokinetic (PK) blood sampling pre-dose, close before the first and the second dose administration was performed at Day 7, Day 14 and Day 28 visits days in all patients. 248 patients with erosive esophagitis due to GERD LA grade C or D and patients with erosive esophagitis due to GERD LA grade A or B with at least partial symptom response but still endoscopically unhealed after 8 weeks history of standard treatment healing course with PPI, were randomized.
# (§2) Randomization to one of the treatments with linaprazan glurate 25 mg, 50 mg, 75 mg, 100 mg twice daily (BID), or lansoprazole 30 mg once daily (QD) was based on a 1:1:1:1:1 scheme. One site could not enroll more than about 20% of the overall number of patients (48 patients per site).
# The duration of each patient's participation in the study, including screening, blind treatment period and open-label treatment period, was approximately 60 days. The patients were randomized for 4 weeks (28 days, −2/+5 days) of double-blind treatment and were provided with IMP for 35 days (including one additional blister pack dispensed at Visit 2/Day 0) to allow for treatment up to the visit window. […]
# [2] = LEED study: heartburn assessed by mRESQ-eDiary; format: in vivo, human
# From the text: Relief of reflux-related symptoms may be assessed based on the modified Reflux Symptom Reflux Questionnaire-electronic Diary (mRESQ-eDiary), which is an electronic symptom diary developed for use in partial responders to proton pump inhibitors. mRESQ-eD has three domains (i.e., heartburn, other GERD signs/symptoms and regurgitations/reflux) and eight items (Andrae et al., Clin. Transl. Gastroenterol. 2020, 11(1): e00117).
# as §1, §2
# The duration of each patient's participation in the study, including screening, blind treatment period and open-label treatment period, was approximately 60 days. The patients were randomized for 4 weeks (28 days, −2/+5 days) of double-blind treatment and were provided with IMP for 35 days (including one additional blister pack dispensed at Visit 2/Day 0) to allow for treatment up to the visit window. […] Following the endoscopic evaluation, all patients received subsequent 4 weeks of open-label treatment with lansoprazole 30 mg QD. Repeated symptom evaluation to detect symptom pattern was assessed during this period.
# Four doses of linaprazan glurate (25 mg, 50 mg, 75 mg, 100 mg, and dummies) were administered as tablets twice daily. The active comparator lansoprazole 30 mg and its dummy were administered as capsules once daily in the morning. The study drugs were taken with 100 mL of noncarbonated water at least 30 minutes prior to meals. The duration of double-blind treatment was 28 days −2/+5 days. To blind treatment, each patient received 2 tablets (containing doses of linaprazan glurate (LG) or its dummy) and one capsule (containing lansoprazole or its dummy) in the morning and 2 tablets (containing doses of linaprazan glurate (LG) or its dummy) in the evening, according to the scheme below:
# A secondary objective of the study was the safety and tolerability of the four dose levels of linaprazan glurate and lansoprazole, with lansoprazole serving as the active comparator. Another secondary objective of the study was the reflux related symptom pattern during the initial 4 weeks treatment with four dose levels of linaprazan glurate and with lansoprazole, and the symptom pattern during the subsequent additional 4 weeks (weeks 5-8) open-label treatment with lansoprazole 30 mg QD. Heartburn-free 24-hour days and 24-hour days with at most mild heartburn symptoms were assessed based on modified eDiary (mRESQ-eD), including splits into day- and nighttime evaluations.
# Reflux related symptoms were assessed based on a modified RESQ-eDiary (mRESQ-eD). Patients were asked to report every 12-hours, once before the morning dose and once before the evening dose of the Investigational Medicinal Product (IMP).
# [3] = LEED study: safety and tolerability (adverse events); details: TEAE, LAN 30 mg QD
# [4] = Dynamic vapour sorption (DVS) analysis; format: physicochemical
# Method: In some embodiments, Form 1 of the HCl salt of linaprazan glurate is stable at a relative humidity up to 90% at a temperature of 25° C.
# [5] = week 4, erosive patients all LA grades, LAN 30 mg QD (N = 20)
smiles,measurement,setting,value
"Cc1c(OCC(F)(F)F)ccnc1C[S+]([O-])c1nc2ccccc2[nH]1 (centres unmarked) [lansoprazole, reference compound]",four-week healing rate,[1]; LA grade A/B,81%
same,healing rate,"[1]; LA grade A/B/C/D, 4 weeks, FIG. 8",69%
same,mean LA grade improvement,"[1]; LA grade C/D, 4 weeks, FIG. 5",2.1
same,four-week healing rate,[1]; LA grade C/D,38%
same,"heartburn severity, rank among groups","[2]; FAS Erosive, first week, morning and evening, lansoprazole 30 mg QD",highest heartburn severity
same,"severity grade of heartburn, rank among groups","[2]; FAS, first week, morning and evening, lansoprazole 30 mg QD",highest severity grade of heartburn
same,"heartburn-free days, rank among groups","[2]; LA Grade A/B, week 4, lansoprazole 30 mg QD",most heartburn-free days
same,"heartburn-free days, rank among groups","[2]; LA Grade A/B, week 6 open-label, lansoprazole group",highest
same,"heartburn-free days, rank among groups","[2]; LA Grade C/D, week 2-4, lansoprazole 30 mg QD",lowest percentage of heartburn-free days
same,"heartburn-free days, rank among groups","[2]; LA Grade C/D, week 5-8 open-label, lansoprazole group",lowest percentage of heartburn-free days
same,% at most mild symptoms 24-hour days (mean),[2]; [5],88%
same,% heartburn-free 24-hour days (mean),[2]; [5],52%
same,Patients (%) totally free from heartburn,[2]; [5],32%
same,Patients (%) with at most mild heartburn,[2]; [5],79%
same,Patients (%) with non-mild heartburn,[2]; [5],21%
same,COVID-19 (%),[3],4.0%
same,COVID-19 events,[3],2 events
same,Constipation (%),[3],0.0%
same,Constipation events,[3],0 events
same,Headache (%),[3],2.0%
same,Headache events,[3],1 events
same,Nausea (%),[3],8.0%
same,Nausea events,[3],4 events
Cc1cccc(C)c1CNc1cc(C(=O)NCCOC(=O)CCCC(=O)O)cn2c(C)c(C)nc12,water uptake,[4]; 90% RH,about 0.2%
same,water content of the crystals on humidity changes,[4]; about 30% to about 80% RH,remains substantially constant
same,hygroscopicity,[4]; dynamic vapour sorption,very low hygroscopicity
